Legend:
[1] = Permeability at pH 6.5 by PAMPA method
[2] = Oral bioavailability in human; details: in vivo
Homo sapiens = species: Homo sapiens; assay: Clearance in human assessed as liver blood flow; type: ADME, organism-based; details: in vivo
[3] = Octanol-water partition coefficient, log P of the compound

Papp [1] [×10⁻⁶ cm/s] | bioavailability [2] [%] | LBF (Homo sapiens) [%] | logP [3] | permeability [1] [×10⁻⁶ cm/s] | Structure (SMILES)
1.4 | 14 |  |  |  | CC(C)(C)NCC(O)c1cc(O)cc(O)c1 (stereo unspecified) [TERBUTALINE]
17 | 37 |  |  |  | CCOC(=O)[C@H](CCc1ccccc1)N[C@H]1CCc2ccccc2N(CC(=O)O)C1=O [BENAZEPRIL]
57 | 88 |  |  |  | N[C@@H]1[C@H]2CN(c3nc4c(cc3F)c(=O)c(C(=O)O)cn4-c3ccc(F)cc3F)C[C@@H]12 [TROVAFLOXACIN]
7.7 | 89 |  |  |  | CCn1cc(C(=O)O)c(=O)c2cc(F)c(N3CCNCC3)nc21 [ENOXACIN]
0.6 | 42 | 16 |  |  | NC(N)=Nc1nc(CSCCC(N)=NS(N)(=O)=O)cs1 [FAMOTIDINE]
 | 60 | 10 |  |  | COCc1c(C(C)C)nc(C(C)C)c(/C=C/[C@@H](O)C[C@@H](O)CC(=O)O)c1-c1ccc(F)cc1 [CERIVASTATIN]
3.8 | 66 |  |  |  | CN(C)[C@@H]1C(O)=C(C(N)=O)C(=O)[C@@]2(O)C(O)=C3C(=O)c4c(O)ccc(Cl)c4[C@@H](O)[C@H]3C[C@@H]12 [DEMECLOCYCLINE]
0.3 | 0 |  |  |  | COc1cccc2c1C(=O)c1c(O)c3c(c(O)c1C2=O)C[C@@](O)(C(C)=O)C[C@@H]3O[C@H]1C[C@H](N)[C@H](O)[C@H](C)O1 [DAUNORUBICIN]
1.3 | 10 |  |  |  | C[N+](C)(C)C[C@H](O)CC(=O)[O-] [LEVOCARNITINE]
 | 89 |  |  |  | Cc1cnc(NC(=O)C2=C(O)c3ccccc3S(=O)(=O)N2C)s1 [MELOXICAM]
 | 95 |  |  |  | CCn1cc(C(=O)O)c(=O)c2cc(F)c(N3CCN(C)CC3)cc21 [PEFLOXACIN]
 | 7.3 |  |  |  | Nc1nc(O)c2ncn(COC(CO)CO)c2n1 [GANCICLOVIR]
20 |  |  |  |  | C[C@H]1c2cccc(O)c2C(=O)C2=C(O)[C@]3(O)C(=O)C(C(N)=O)=C(O)[C@@H](N(C)C)[C@@H]3[C@@H](O)[C@@H]21.O [DOXYCYCLINE]
3.7 | 60 |  |  |  | CN(C)[C@@H]1C(O)=C(C(N)=O)C(=O)[C@@]2(O)C(O)=C3C(=O)c4c(O)ccc(Cl)c4[C@@](C)(O)[C@H]3C[C@@H]12 [CHLORTETRACYCLINE]
 | 90 |  |  |  | CC1COc2c(N3CCN(C)CC3)c(F)cc3c(=O)c(C(=O)O)cn1c23 (stereo unspecified) [OFLOXACIN]
22 | 80 |  |  |  | Cc1cccc(Nc2ccncc2S(=O)(=O)NC(=O)NC(C)C)c1 [TORSEMIDE]
20 |  |  |  |  | CN1C(C(=O)Nc2ccccn2)=C(O)c2ccccc2S1(=O)=O [PIROXICAM]
20 |  |  |  |  | COc1c(N2CCNC(C)C2)c(F)cc2c(=O)c(C(=O)O)cn(C3CC3)c12 (stereo unspecified) [GATIFLOXACIN]
0.9 | 10 |  |  |  | CC1(C)S[C@@H]2[C@H](/N=C/N3CCCCCC3)C(=O)N2[C@H]1C(=O)O [AMDINOCILLIN]
50 | 100 |  |  |  | CN(C)c1ccc(O)c2c1C[C@H]1C[C@H]3[C@H](N(C)C)C(O)=C(C(N)=O)C(=O)[C@@]3(O)C(O)=C1C2=O [MINOCYCLINE]
0.8 |  |  |  |  | Nc1nc2c(ncn2COCCO)c(=O)[nH]1 [ACYCLOVIR]
3.8 | 78 |  |  |  | CN(C)[C@@H]1C(O)=C(C(N)=O)C(=O)[C@@]2(O)C(O)=C3C(=O)c4c(O)cccc4[C@@](C)(O)[C@H]3C[C@@H]12 [TETRACYCLINE]
0.9 | 28 |  |  |  | Nc1ccc(O)c(C(=O)O)c1 [MESALAMINE]
1.2 | 100 |  | -0.08 |  | Nc1ccc(S(=O)(=O)Nc2ncccn2)cc1 [SULFADIAZINE]
42 | 92 |  |  |  | C[C@@H]1CN(c2c(F)c(N)c3c(=O)c(C(=O)O)cn(C4CC4)c3c2F)C[C@H](C)N1 [SPARFLOXACIN]
 | 97 |  |  | 15 | CCn1cc(C(=O)O)c(=O)c2cc(F)c(N3CCNC(C)C3)c(F)c21 (stereo unspecified) [LOMEFLOXACIN]

Structure (SMILES) | Papp [1] [×10⁻⁶ cm/s] | bioavailability [2] [%] | LBF (Homo sapiens) [%] | logP [3] | permeability [1] [×10⁻⁶ cm/s]
CC(C)(O/N=C(\C(=O)N[C@@H]1C(=O)N2C(C(=O)[O-])=C(C[n+]3ccccc3)CS[C@H]12)c1csc(N)n1)C(=O)O [CEFTAZIDIME] | 0.2 | 0 |  |  | 
NCCCC[C@H](N[C@@H](CCc1ccccc1)C(=O)O)C(=O)N1CCC[C@H]1C(=O)O [LISINOPRIL ANHYDROUS] |  | 25 |  |  | 
N[C@@H](Cc1ccc(N(CCCl)CCCl)cc1)C(=O)O | 84 |  | 30 |  | 

Source: ChEMBL document CHEMBL1156784, “The permeation of amphoteric drugs through artificial membranes--an in combo absorption model based on paracellular and transmembrane permeability” (J Med Chem, 2010)
